# Reference: patent publication US9309242B2, “Substituted pyrido[2,3-b]pyrazines as FGFR kinase inhibitors” (priority 2011, dated 2016)
# Counter-ions that a name gives are not always drawn. Like-named read-outs stand apart in the source and are kept apart here.
# How the values were obtained:
# [1] = tested on: Ba/F3-FGFR1-transfected cells; test: Ba/F3-FGFR1 (plus IL3) cellular proliferation assay, counterscreen with 10 ng/ml murine IL3; type: cell-based; conditions: read-out: BAF3-FGFR1 (PLUS IL3) pIC50 (converted)
# How it was run: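 Proliferation read-out: resazurin-based Alamar Blue fluorescence (540/590 nm) after 4 h, following 24 h compound treatment of 20000 Ba/F3-FGFR1 cells per well in 10% FBS RPMI at 37° C. IL3 counterscreen used the same protocol plus 10 ng/ml murine IL3.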
# FGFR3 (h) = FGFR3 (h) (Homo sapiens, UniProt P22607); test: FGFR3 (enzymatic assay), TR-FRET; type: biochemical; conditions: average values if tested multiple times, read-out: FGFR 3 pIC50 (converted)
# Excerpt: Time-Resolved Fluorescence Resonance Energy Transfer (TR-FRET) signal (ex340 nm.
# FGFR4 (h) = FGFR4 (h) (Homo sapiens, UniProt P22455); test: FGFR4 (enzymatic assay), TR-FRET; type: biochemical; conditions: FGFR 4 pIC50, enzymatic assay; average values if tested multiple times
# [2] = tested on: Ba/F3-KDR-transfected cells; test: Ba/F3-KDR (plus IL3) cellular proliferation assay, counterscreen with 10 ng/ml murine IL3; type: cell-based; conditions: read-out: BAF3-KDR (PLUS IL3) pIC50 (converted)
# How it was run: (§1)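 Read-out: resazurin-based Alamar Blue fluorescence (ex. 540, em. 590 nm) after 4 h. Before that, cells were incubated with compound for 24 h at 37° C. The counterscreen ran identically but with IL3 supplemented.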
# KDR (h) = KDR (h) (Homo sapiens, UniProt P35968); test: KDR (VEGFR2) (enzymatic assay), TR-FRET; type: biochemical; conditions: average values if tested multiple times, read-out: VEGFR 2 (KDR) pIC50 (converted)
# How it was run: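 3 μM ATP, 500 nM Btn-Flt3 substrate, 150 ng/ml kinase; HEPES pH 7.5 with MnCl2, DTT, vanadate, Triton; 1% DMSO. 120 min RT. Stop: EDTA + Eu-anti-P-Tyr + SA-XL-665, 60 min RT. Readout TR-FRET ex340/em620, 655 nm, RFU.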
# [3] = target: T1, Ba/F3-FGFR3-transfected cells (Homo sapiens, UniProt P22607); test: Ba/F3-FGFR3 (minus IL3) cellular proliferation assay, Alamar Blue; type: cell-based
# T1 construct: BAF3-FGFR3 (MIN IL3) pIC50; other: minus IL3
# How it was run: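 With or without 10 ng/ml murine IL3, FGFR3-dependent Ba/F3 cells were treated 24 h with compound, then viability was gauged by Alamar Blue fluorescence after 4 h (ex 540/em 590 nm).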
# [4] = target: T2, Ba/F3-KDR-transfected cells (Homo sapiens, UniProt P35968); test: Ba/F3-KDR (minus IL3) cellular proliferation assay, Alamar Blue; type: cell-based
# T2 construct: BAF3-KDR (MIN IL3) pIC50; other: minus IL3
# How it was run: as §1
# FGFR2 (h) = FGFR2 (h) (Homo sapiens, UniProt P21802); test: FGFR2 (enzymatic assay), TR-FRET; type: biochemical; conditions: enzymatic assay; average values if tested multiple times; read-out: FGFR 2 pIC50 (converted)
# How it was run: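 At low ATP (0.4 μM), enzyme activity of human FGFR2 (150 ng/ml) toward biotinylated Flt3 substrate (500 nM) was followed with test compound present. Reactions ran in 50 mM HEPES pH 7.5, 6 mM MnCl2, 1 mM DTT, 0.1 mM Na3VO4, 0.01% Triton-X-100, 1% DMSO.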
# FGFR1 (h) = FGFR1 (h) (Homo sapiens, UniProt P11362); test: FGFR1 (enzymatic assay), TR-FRET; type: biochemical; conditions: average values if tested multiple times, read-out: FGFR 1 pIC50 (converted)
# [5] = target: T3, Ba/F3-FGFR1-transfected cells (Homo sapiens, UniProt P11362); test: Ba/F3-FGFR1 (minus IL3) cellular proliferation assay, Alamar Blue; type: cell-based
# T3 construct: BAF3-FGFR1 (MIN IL3) pIC50; other: minus IL3
# How it was run: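 Viability of transfected Ba/F3-FGFR1 cells (20000 per well, RPMI-1640 with 10% FBS and 2 mM L-glutamine) was scored by resazurin-based Alamar Blue reduction over 4 h, after 24 h treatment with compound at 37 °C under 5% CO2.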
# [6] = plus IL3 (10 ng/ml murine IL3, counterscreen)
# T2 sequence (P35968 whole entry, change not shown): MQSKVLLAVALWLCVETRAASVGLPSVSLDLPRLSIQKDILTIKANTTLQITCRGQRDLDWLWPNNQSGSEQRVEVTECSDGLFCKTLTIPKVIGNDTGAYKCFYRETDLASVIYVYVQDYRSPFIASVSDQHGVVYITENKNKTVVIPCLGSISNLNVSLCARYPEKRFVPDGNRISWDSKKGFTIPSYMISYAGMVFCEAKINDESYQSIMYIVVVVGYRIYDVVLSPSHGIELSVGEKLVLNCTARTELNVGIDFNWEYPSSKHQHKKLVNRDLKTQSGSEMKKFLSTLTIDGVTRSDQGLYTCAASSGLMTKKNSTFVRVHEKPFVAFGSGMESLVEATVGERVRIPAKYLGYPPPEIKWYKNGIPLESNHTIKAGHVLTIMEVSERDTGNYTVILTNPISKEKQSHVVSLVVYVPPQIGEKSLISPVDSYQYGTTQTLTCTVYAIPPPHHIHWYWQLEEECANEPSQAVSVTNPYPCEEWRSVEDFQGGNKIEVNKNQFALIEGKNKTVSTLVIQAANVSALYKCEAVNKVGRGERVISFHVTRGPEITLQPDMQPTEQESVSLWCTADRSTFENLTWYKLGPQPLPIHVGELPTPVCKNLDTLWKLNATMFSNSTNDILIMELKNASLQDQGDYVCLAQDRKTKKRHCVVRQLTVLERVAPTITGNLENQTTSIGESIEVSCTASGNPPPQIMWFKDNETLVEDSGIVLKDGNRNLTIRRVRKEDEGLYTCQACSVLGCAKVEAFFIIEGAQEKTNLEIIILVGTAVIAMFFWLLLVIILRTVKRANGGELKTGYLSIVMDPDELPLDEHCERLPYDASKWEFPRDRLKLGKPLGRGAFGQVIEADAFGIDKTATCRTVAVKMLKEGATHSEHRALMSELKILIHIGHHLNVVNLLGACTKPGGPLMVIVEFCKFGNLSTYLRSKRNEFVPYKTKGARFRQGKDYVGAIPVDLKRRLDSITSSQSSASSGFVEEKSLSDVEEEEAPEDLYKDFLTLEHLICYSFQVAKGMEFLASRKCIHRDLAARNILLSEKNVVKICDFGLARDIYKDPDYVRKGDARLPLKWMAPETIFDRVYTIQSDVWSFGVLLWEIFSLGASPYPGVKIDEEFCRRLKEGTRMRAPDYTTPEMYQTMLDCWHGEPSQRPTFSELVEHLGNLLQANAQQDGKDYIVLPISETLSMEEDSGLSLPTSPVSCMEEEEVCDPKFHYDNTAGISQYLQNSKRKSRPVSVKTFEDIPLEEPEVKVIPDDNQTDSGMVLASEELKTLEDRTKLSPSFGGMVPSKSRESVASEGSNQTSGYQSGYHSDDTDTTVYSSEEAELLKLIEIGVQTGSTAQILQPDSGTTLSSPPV
# Chain of KDR (h) (P35968 20-1356): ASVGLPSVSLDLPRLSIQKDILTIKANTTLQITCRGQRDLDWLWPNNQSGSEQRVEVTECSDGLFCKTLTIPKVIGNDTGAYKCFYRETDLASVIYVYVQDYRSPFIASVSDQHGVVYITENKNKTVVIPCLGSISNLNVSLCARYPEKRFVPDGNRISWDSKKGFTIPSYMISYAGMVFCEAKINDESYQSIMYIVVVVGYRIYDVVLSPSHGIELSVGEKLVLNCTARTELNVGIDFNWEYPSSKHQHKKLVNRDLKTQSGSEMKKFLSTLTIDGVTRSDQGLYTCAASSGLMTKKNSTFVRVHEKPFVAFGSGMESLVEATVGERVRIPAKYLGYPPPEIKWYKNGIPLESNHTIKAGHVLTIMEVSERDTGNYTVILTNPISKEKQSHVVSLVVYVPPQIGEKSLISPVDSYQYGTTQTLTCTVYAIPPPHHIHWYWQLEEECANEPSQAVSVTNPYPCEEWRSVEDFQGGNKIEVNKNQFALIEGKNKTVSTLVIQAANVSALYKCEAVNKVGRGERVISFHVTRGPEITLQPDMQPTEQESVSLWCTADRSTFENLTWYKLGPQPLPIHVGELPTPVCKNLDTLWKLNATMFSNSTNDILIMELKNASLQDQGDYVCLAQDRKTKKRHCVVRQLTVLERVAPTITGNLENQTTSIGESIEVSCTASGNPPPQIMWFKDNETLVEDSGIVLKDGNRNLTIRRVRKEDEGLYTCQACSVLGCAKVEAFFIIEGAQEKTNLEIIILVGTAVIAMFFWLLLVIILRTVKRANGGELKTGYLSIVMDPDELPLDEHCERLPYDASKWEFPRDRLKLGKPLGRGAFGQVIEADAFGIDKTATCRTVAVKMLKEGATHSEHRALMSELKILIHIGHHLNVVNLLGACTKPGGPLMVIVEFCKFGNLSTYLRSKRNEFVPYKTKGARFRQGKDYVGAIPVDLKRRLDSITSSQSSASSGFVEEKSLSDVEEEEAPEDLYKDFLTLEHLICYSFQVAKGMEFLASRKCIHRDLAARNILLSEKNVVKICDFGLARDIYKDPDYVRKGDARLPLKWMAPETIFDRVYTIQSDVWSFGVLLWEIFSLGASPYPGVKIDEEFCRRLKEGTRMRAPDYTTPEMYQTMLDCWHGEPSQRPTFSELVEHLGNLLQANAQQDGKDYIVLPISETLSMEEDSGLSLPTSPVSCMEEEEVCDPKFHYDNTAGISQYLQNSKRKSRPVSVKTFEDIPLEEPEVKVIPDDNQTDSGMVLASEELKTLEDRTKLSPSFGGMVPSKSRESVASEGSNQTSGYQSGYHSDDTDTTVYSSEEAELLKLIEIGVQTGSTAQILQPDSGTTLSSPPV
# Chain of FGFR3 (h) (P22607 23-806): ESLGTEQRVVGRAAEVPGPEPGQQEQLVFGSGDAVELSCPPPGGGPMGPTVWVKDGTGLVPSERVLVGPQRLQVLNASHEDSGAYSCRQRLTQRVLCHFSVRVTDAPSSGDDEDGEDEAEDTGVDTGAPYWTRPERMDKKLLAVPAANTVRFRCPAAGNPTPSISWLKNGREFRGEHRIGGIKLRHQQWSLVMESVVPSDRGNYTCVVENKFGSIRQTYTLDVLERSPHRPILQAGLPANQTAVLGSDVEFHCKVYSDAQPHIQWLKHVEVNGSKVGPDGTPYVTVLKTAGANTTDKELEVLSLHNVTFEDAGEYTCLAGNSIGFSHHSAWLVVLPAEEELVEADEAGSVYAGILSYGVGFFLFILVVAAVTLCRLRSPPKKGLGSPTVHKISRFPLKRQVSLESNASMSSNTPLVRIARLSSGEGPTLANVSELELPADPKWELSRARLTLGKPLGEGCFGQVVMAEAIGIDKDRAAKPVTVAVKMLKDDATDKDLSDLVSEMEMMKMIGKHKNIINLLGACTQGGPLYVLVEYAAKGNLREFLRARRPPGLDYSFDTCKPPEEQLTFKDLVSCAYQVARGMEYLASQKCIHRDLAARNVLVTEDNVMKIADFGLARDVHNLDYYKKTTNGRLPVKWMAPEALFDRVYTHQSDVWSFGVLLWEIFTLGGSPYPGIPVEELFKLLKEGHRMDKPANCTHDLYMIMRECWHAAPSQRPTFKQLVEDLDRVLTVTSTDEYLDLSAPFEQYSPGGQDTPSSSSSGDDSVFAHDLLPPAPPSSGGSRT
# Chain of FGFR2 (h) (P21802 22-821): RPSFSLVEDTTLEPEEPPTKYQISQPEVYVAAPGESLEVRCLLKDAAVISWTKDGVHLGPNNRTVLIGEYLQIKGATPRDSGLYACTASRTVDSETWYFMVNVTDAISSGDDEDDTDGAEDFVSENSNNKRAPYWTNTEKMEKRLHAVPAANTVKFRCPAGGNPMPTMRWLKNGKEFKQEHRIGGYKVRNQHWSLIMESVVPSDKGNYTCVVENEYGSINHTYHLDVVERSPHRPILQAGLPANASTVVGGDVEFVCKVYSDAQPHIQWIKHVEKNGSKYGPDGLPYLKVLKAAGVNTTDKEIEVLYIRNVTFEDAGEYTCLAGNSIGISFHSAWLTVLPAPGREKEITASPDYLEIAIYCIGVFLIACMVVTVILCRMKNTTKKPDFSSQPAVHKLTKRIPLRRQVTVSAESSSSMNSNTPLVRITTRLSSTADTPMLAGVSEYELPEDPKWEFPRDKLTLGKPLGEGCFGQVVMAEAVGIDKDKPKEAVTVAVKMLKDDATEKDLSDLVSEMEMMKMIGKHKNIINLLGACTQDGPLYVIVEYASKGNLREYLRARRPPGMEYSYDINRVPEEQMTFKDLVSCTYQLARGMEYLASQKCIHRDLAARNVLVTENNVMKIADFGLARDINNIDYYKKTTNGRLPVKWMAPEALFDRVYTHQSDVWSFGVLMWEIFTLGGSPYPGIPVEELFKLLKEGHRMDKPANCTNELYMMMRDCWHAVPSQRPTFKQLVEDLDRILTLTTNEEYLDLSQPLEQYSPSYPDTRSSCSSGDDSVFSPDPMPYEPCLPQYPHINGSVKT
# T3 sequence (P11362 whole entry, change not shown): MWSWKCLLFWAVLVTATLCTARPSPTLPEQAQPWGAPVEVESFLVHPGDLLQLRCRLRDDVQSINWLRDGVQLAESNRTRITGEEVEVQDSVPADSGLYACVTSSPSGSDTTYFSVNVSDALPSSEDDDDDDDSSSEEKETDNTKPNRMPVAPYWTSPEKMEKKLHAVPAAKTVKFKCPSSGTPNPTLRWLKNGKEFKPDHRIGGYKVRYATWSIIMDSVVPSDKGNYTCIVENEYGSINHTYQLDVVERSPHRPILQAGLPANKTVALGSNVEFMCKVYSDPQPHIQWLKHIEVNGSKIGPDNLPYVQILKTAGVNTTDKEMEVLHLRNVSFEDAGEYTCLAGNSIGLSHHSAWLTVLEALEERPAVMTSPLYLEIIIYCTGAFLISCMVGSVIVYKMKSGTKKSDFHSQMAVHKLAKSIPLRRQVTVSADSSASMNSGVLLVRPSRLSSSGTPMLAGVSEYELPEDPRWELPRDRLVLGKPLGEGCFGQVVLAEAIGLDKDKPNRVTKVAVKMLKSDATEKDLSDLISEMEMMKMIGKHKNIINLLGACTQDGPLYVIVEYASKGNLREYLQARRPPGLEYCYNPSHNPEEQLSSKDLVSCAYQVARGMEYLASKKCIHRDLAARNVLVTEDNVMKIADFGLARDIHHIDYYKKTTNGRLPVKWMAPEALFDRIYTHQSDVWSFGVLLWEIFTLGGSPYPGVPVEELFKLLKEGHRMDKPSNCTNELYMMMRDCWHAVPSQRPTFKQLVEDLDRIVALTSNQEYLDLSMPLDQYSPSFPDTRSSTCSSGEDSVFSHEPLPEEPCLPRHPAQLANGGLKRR
Compound,"IC50 [1, 6] [nM]",IC50 (FGFR3 (h)) [nM],IC50 (FGFR4 (h)) [nM],"IC50 [2, 6] [nM]",IC50 (KDR (h)) [nM],BAF3-FGFR3 (MIN IL3) pIC50 [3],BAF3-KDR (MIN IL3) pIC50 [4],IC50 (FGFR2 (h)) [nM],IC50 (FGFR1 (h)) [nM],BAF3-FGFR1 (MIN IL3) pIC50 [5],IC50 [1] [nM],IC50 [2] [nM]
COc1cc(OC)cc(N(Cc2ncc[nH]2)c2ccc3ncc(-c4cnn(C)c4)nc3n2)c1 (racemic) [24-DL-tartrate salt],> 10000,0.741,1.12,> 10000,11.7,8.21,6.30,1.32,0.355,8.47,,
"COc1cc(OC)c(F)c(N(CCCO)c2ccc3ncc(-c4cnn(C)c4)nc3n2)c1F (single isomer, unassigned) [Compound 16]",> 10000,25.1,25.1,> 10000,100,7.8,6.2,15.8,10,8.0,,
"COc1cc(OC)cc(N(CC(O)C(F)(F)F)c2ccc3ncc(-c4cnn(C)c4)nc3n2)c1 (single isomer, unassigned) [Compound 33]",> 10000,0.708,1.41,> 10000,75.9,~7.64,5.26,2.04,0.871,7.60,,
"COCC(O)CN(c1ccc2ncc(-c3cnn(C)c3)nc2n1)c1cc(OC)cc(OC)c1F (single isomer, unassigned) [Compound 58]",> 10000,1.26,2.14,> 10000,34.7,7.43,5.97,1.95,1.35,7.51,,
"COc1cc(OC)c(F)c(N(CC(O)COC(C)C)c2ccc3ncc(-c4cnn(C)c4)nc3n2)c1 (single isomer, unassigned) [Compound 75]",> 10000,1.95,2.24,> 10000,23.4,7.75,6.16,2.63,2.14,7.76,,
"COc1cc(OC)c(F)c(N(c2ccc3ncc(-c4cnn(C)c4)nc3n2)C(CO)COC(C)C)c1 (single isomer, unassigned) [Compound 76]",> 10000,105,214,> 10000,> 1000,5.64,<5,468,302,5.55,,
"COc1cc(/N=c2\ccc3ncc(-c4cnn(C)c4)nc3n2CC(O)COC(C)C)c(F)c(OC)c1 (single isomer, unassigned) [Compound 77]",> 10000,1.78,3.02,> 10000,28.8,7.38,5.33,3.16,2.69,7.37,,
"COc1cc(OC)c(Cl)c(/N=c2\ccc3ncc(-c4cnn(C)c4)nc3n2CC2CCC(=O)N2)c1Cl (single isomer, unassigned) [Compound 87]",> 9120,4.57,38.9,> 10000,117,~6.93,5.45,6.03,4.07,6.84,,
"COc1cc(OC)c(Cl)c(N(CC2CCC(=O)N2)c2ccc3ncc(-c4cnn(C)c4)nc3n2)c1Cl (single isomer, unassigned) [Compound 88]",> 10000,6.76,42.7,> 10000,102,6.57,5.14,9.12,12.9,6.68,,
"COc1ccc(Cl)c(/N=c2\ccc3ncc(-c4cnn(C)c4)nc3n2CC2CCC(=O)N2)c1Cl (single isomer, unassigned) [Compound 89]",> 10000,97.7,~1120,> 10000,339,5.14,<5,70.8,93.3,5.18,,
"COc1cc(OC)c(F)c(N(CC2COC(=O)N2)c2ccc3ncc(-c4cnn(C)c4)nc3n2)c1 (single isomer, unassigned) [Compound 111]",> 10000,1,1.58,> 10000,30.9,7.58,5.61,2,1.15,7.79,,
"COc1cc(/N=c2\ccc3ncc(-c4cnn(C)c4)nc3n2CC2COC(=O)N2)c(F)c(OC)c1 (single isomer, unassigned) [Compound 112]",> 10000,0.776,2.04,> 10000,17,~7.27,5.65,1.66,1.26,7.23,,
CNCCN(c1ccc2ncc(-c3cnn(C)c3)nc2n1)c1c(F)c(OC)cc(OC)c1F [Compound 3],> 10000,2.57,6.46,> 10000,21.9,~8.04,6.48,3.09,1.35,8.38,,
COc1cc(OC)c(F)c(N(CCNC(C)C)c2ccc3ncc(-c4cnn(C)c4)nc3n2)c1F [Compound 5],6310,1.58,6.31,> 10000,79.4,8.3,6.35,3.98,1.58,8.7,,
COCC(O)CN(c1cc(OC)cc(OC)c1)c1ccc2ncc(-c3cnn(C)c3)nc2n1 (centres unmarked) [Compound 7],> 10000,1.58,6.31,> 10000,200,7.1,5.1,3.98,3.16,7.0,,
COc1cc(OC)c(F)c(N(Cc2ncccn2)c2ccc3ncc(-c4cnn(C)c4)nc3n2)c1 [Compound 9],,15.8,25.1,,50.1,~7.2,5.95,12.6,5.62,7.4,> 10000,> 10000
COc1cc(OC)c(F)c(N(Cc2cnccn2)c2ccc3ncc(-c4cnn(C)c4)nc3n2)c1F [Compound 10],> 10000,63.1,100,> 10000,31.6,7.85,6.2,35.5,15.8,8.1,,
